Legend:
Details in all cases: 10 µM
HIV-1/H5N1 pseudovirus = experiment: organism not typed; assay type: cell-based, influenza A virus A/Goose/Qinghai/59/05 (H5N1)
HIV-1/LASV pseudovirus = experiment: microbe, parasite or virus in culture; assay type: cell-based
HIV-1/EBOV pseudovirus = test system: HIV-1/EBOV pseudovirus
A549 cells = test system: A549 cells

| Compound | Inhibition HIV/H5N1 (HIV-1/H5N1 pseudovirus) [%] | Inhibition HIV/LASV (HIV-1/LASV pseudovirus) [%] | Inhibition HIV/EBOV (HIV-1/EBOV pseudovirus) [%] | Cell Viability (A549 cells) [%] |
| --- | --- | --- | --- | --- |
| CN(C)CCC(O)(c1cccc(F)c1)C1c2ccccc2Sc2ccccc21 (stereo not shown) [SYL1634] | 83.95 | 83.87 | 99.53 | 81.21 |
| Brc1ccc2nc(OCc3cccc4ccccc34)c(-c3ccc(CN4CCN(Cc5ccccc5)CC4)cc3)cc2c1 [SYL1697] | -5.87 | 15.89 | 67.57 | 90.86 |
| CN(C)Cc1ccccc1C(O)c1cc2cc(Br)ccc2nc1OCc1cccc2ccccc12 (stereo not shown) [SYL1652] | 98.16 | 97.16 | 99.94 | 61.30 |
| Brc1ccc2nc(OCc3cccc4ccccc34)c(-c3ccc(N4CCCC4)cc3)cc2c1 [SYL1686] | 65.78 | 90.35 | 99.92 | 82.03 |
| COc1nc2ccc(Br)cc2cc1C(c1ccccc1)C1(O)CCN(C)CC1 (stereo not shown) [SYL1636] | 97.70 | 98.04 | 99.39 | 4.08 |
| CN(C)Cc1ccc(-c2cc3cc(Br)ccc3nc2Oc2ccccc2)cc1 [SYL1676] | 36.23 | 19.98 | 71.19 | 89.65 |
| CN(C)CCCC(O)(c1ccccc1)c1cc2ccccc2nc1Oc1cccc2ccccc12 (stereo not shown) [SYL1635] | 97.52 | 99.31 | 99.63 | 11.15 |
| COc1nc2ccccc2cc1C(Nc1ccccc1N1CCN(C)C1=O)c1ccccc1 (stereo not shown) [SYL1662] | 68.52 | 89.05 | 99.56 | 89.06 |
| CN(C)Cc1ccc(-c2cc3cc(Br)ccc3nc2Oc2ccc(OCc3ccccc3)cc2)cc1 [SYL1698] | 97.44 | 98.80 | 99.64 | 107.16 |
| CN(C)Cc1cccc(-c2cc3cc(Br)ccc3nc2OCCc2cccc3ccccc23)c1 [SYL1664] | 50.44 | 86.44 | 99.90 | 84.59 |
| CN(C)Cc1ccc(-c2cc3cc(Br)ccc3nc2OCc2ccncc2)cc1 [SYL1696] | 97.45 | 98.53 | 99.25 | 26.82 |
| CN(C)Cc1ccc(-c2cc3cc(Br)ccc3nc2OCc2ccccc2)cc1 [SYL1675] | 98.13 | 91.37 | 99.89 | 88.37 |
| CN1CCN(Cc2ccc(-c3cc4cc(Br)ccc4nc3OCc3cccc4ccccc34)cc2)CC1 [SYL1670] | 91.10 | 77.77 | 99.92 | 82.37 |
| CN(C)C(=O)Cc1ccc(-c2cc3cc(Br)ccc3nc2OCc2cccc3ccccc23)cc1 [SYL1677] | 15.95 | 29.51 | 90.04 | 58.71 |
| CC(=NOCCN(C)C)c1cc2ccccc2nc1Oc1cccc2ccccc12 [SYL1626] | 44.19 | 85.39 | 99.66 | 86.91 |
| COc1ccc2nc(OCc3cccc4ccccc34)c(-c3ccc(CN(C)C)cc3)cc2c1 [SYL1702] | 87.31 | 89.93 | 99.95 | 89.90 |
| COc1nc2ccc(Br)cc2cc1C(c1ccccc1)n1cc(CN(C)C)c2ccccc21 (stereo not shown) [SYL1629] | 29.75 | 88.22 | 99.91 | 90.62 |
| CN(C)CCN1CCN(c2ccc(-c3cc4cc(Br)ccc4nc3OCc3cccc4ccccc34)cc2)CC1 [SYL1710] | 97.63 | 98.64 | 99.39 | 1.97 |
| Brc1ccc2nc(Oc3cccc4ccccc34)c(-c3ccccc3)cc2c1 [SYL1653] | 64.36 | 87.04 | 99.85 | 82.57 |
| COc1cc(-c2cc3cc(Br)ccc3nc2OCc2cccc3ccccc23)ccc1CN(C)C [SYL1709] | 94.56 | 81.68 | 99.76 | 74.44 |
| CN(C)Cc1ccc(-c2cc3cc(Br)ccc3nc2OCc2ccc(-c3ccccc3)cc2)cc1 [SYL1690] | 98.15 | 86.95 | 99.85 | 80.30 |
| Fc1cccc(COc2nc3ccc(Br)cc3cc2-c2cccc(Oc3ccccn3)c2)c1 [SYL1647] | 44.09 | 89.08 | 99.94 | 82.66 |

| Compound | Inhibition HIV/H5N1 (HIV-1/H5N1 pseudovirus) [%] | Inhibition HIV/LASV (HIV-1/LASV pseudovirus) [%] | Inhibition HIV/EBOV (HIV-1/EBOV pseudovirus) [%] | Cell Viability (A549 cells) [%] |
| --- | --- | --- | --- | --- |
| COc1nc2ccccc2cc1C(O)(Cc1cccc(F)c1)c1cccc(CN(C)C)c1 (stereo not shown) [SYL1659] | 96.52 | 97.39 | 99.09 | 36.09 |
| CN(C)Cc1ccc(-c2cc3cc(Br)ccc3nc2OCc2c(F)cccc2F)cc1 [SYL1693] | 97.66 | 99.04 | 99.59 | 3.19 |
| CN(C)CCNc1nc2ccc(Br)cc2cc1-c1ccc(CN(C)C)cc1 [SYL1721] | 98.20 | 99.50 | 99.63 | 1.26 |
| COc1ccc(CC(O)(c2ccccc2CN(C)C)c2cc3cc(OC)ccc3nc2OC)cc1 (stereo not shown) [SYL1663] | 88.29 | 89.19 | 99.90 | 89.15 |
| CN(C)CCOc1nc2ccc(Br)cc2cc1-c1ccc(CN(C)C)cc1 [SYL1723] | 98.10 | 97.12 | 99.81 | 68.89 |
| CN(C)Cc1cccc(-c2cc3cc(Br)ccc3nc2OCc2cccc3ccccc23)c1 [SYL1638] | 98.27 | 99.18 | 99.91 | 18.62 |
| COc1nc2ccc(Br)cc2cc1-c1ccc(CN(C)C)cc1 [SYL1689] | 97.51 | 88.23 | 99.94 | 78.79 |
| CCN(CC)CCc1ccc(-c2cc3cc(Br)ccc3nc2OCc2cccc3ccccc23)cc1 [SYL1671] | 92.36 | 89.90 | 99.87 | 88.97 |
| COc1nc2ccccc2cc1C(Nc1ccccc1NCCN(C)C)c1ccccc1 (stereo not shown) [SYL1621] | 97.96 | 99.14 | 99.90 | 52.36 |
| COc1nc2ccccc2cc1C(O)(Cc1cccc(F)c1)c1ccccc1CN1CCOCC1 (stereo not shown) [SYL1668] | 74.86 | 86.46 | 99.87 | 79.06 |
| CN1CCC(c2ccccc2)(C(O)(c2ccccc2)c2ccccc2)CC1 [SYL1661] | 5.09 | 72.11 | 99.91 | 77.89 |
| COc1nc2ccc(Br)cc2cc1C(c1ccccc1)C1(OC(=O)c2ccccc2)CCN(C)CC1 (stereo not shown) [SYL1645] | 45.37 | 86.68 | 99.92 | 82.47 |
| COc1ccc(COc2nc3ccc(Br)cc3cc2-c2ccc(CN(C)C)cc2)cc1 [SYL1706] | 54.58 | 87.40 | 99.20 | 82.99 |
| COc1ccc2nc(OCc3cccc4ccccc34)c(-c3cccc(CN(C)C)c3)cc2c1 [SYL1667] | 85.49 | 85.91 | 99.94 | 83.17 |
| CN(C)Cc1ccc(-c2cc3cc(Br)ccc3nc2N2CCN(C)CC2)cc1 [SYL1713] | 97.68 | 99.40 | 99.58 | 1.24 |
| COc1cc(CN(C)C)ccc1-c1cc2cc(Br)ccc2nc1OCc1cccc2ccccc12 [SYL1716] | 98.20 | 99.34 | 99.70 | 1.73 |
| CN(C)Cc1ccc(-c2cc3cc(Br)ccc3nc2OCc2cccc3ccccc23)cc1F [SYL1678] | 93.90 | 97.25 | 99.38 | 122.25 |
| CN(C)CCN1CCN(Cc2ccc(-c3cc4cc(Br)ccc4nc3OCc3cccc4ccccc34)cc2)CC1 [SYL1688] | 91.36 | 88.12 | 99.92 | 80.00 |
| CNCCNCc1ccc(-c2cc3cc(Br)ccc3nc2OCc2cccc3ccccc23)cc1 [SYL1679] | 96.95 | 97.63 | 99.70 | 117.07 |
| Fc1cccc(COc2nc3ccc(Br)cc3cc2-c2cccc(-c3ncco3)c2)c1 [SYL1650] | -15.72 | 87.63 | 99.92 | 81.60 |
| CN(C)Cc1ccc(-c2cc3cc(Br)ccc3nc2N2CCCCC2)cc1 [SYL1714] | 83.36 | 51.47 | 98.67 | 91.09 |

— PMC6315506 (Viruses, 2018)
